This experiment can be described thus: Antioxidant activity assessed as hydroxyl radical scavenging activity. The class given is functional.

Consider `C=C1C[C@@]23CC[C@H]4[C@@](C)(CCC[C@@]4(C)C(=O)O[C@@H]4O[C@H](CO)[C@@H](O)[C@H](O)[C@H]4O)[C@@H]2CC[C@]1(O[C@@H]1O[C@H](CO)[C@@H](O)[C@H](O)[C@H]1O[C@@H]1O[C@H](CO)[C@@H](O)[C@H](O)[C@H]1O)C3` [STEVIOSIDE], for which the IC50 was 1500 µM.

On to `O=c1c(O)c(-c2ccc(O)c(O)c2)oc2cc(O)cc(O)c12` [QUERCETIN], for which the IC50 was 110 µM.

These data come from ChEMBL document CHEMBL2390831, “Steviol glycosides: chemical diversity, metabolism, and function” (J Nat Prod, 2013).
